From patent publication US8076487B2, “Pyridone derivative and herbicide” (Kumiai Chemical Industry Co., Ltd., priority 2006, dated 2011)

How the values were obtained:
Type in all cases: in vivo
[1] = system: Japanese bulrush (Scirpus juncoides Roxb.); assay: Test Example 1: herbicidal effect by soil application to paddy field; conditions: paddy field soil application; active ingredient 1,000 g per 1 hectare; wettable powder added dropwise to water surface the day after sowing; examined on the 21st day after application
Method in brief: (§1)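 Under greenhouse conditions, seeds sown on puddled paddy soil in 100 cm2 pots under 3 cm of standing water received the test compound; injury was assessed with a standard scoring scheme three weeks (day 21) after treatment.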

[2] = system: early watergrass (Echinochloa oryzicola Vasing); assay: as above; conditions: paddy field soil application; active ingredient 1,000 g per 1 hectare; wettable powder added dropwise to water surface the day after sowing; examined on the 21st day after application
Method in brief: as §1

[3] = system: heartshape false pickerelweed (Monochoria vaginalis (Burm.f.) C.Presl); assay: as above; conditions: paddy field soil application; active ingredient 1,000 g per 1 hectare; wettable powder added dropwise to water surface the day after sowing; examined on the 21st day after application
Method in brief: as §1

[4] = system: barnyardgrass (Echinochloa crus-galli (L.) P. Beauv. var. crus-galli); assay: Test Example 2: herbicidal effect by soil application to upland field; conditions: soil surface spray, upland field soil, 1,000 g active ingredient per hectare, 21st day after application
Protocol: (§2) [table] Test Example 2 Test on Herbicidal Effect by Soil Application to Upland field In a 80 cm2 plastic pot, field soil was filled. Seeds of barnyardgrass (Echinochloa crus-galli (L.) P. Beauv. var. crus-galli), green foxtail (Setaria viridis (L.) P. Beauv.), velvetleaf (Abutilon theophrasti medicus), and slender amaranth (Amaranthus viridis L.) were sown and covered with soils. The wettable powder prepared according to Formulation Example 1 was diluted in water and a 1,000 liter equivalent amount per 1 hectare so that the active ingredient becomes 1,000 g per 1 hectare was uniformly sprayed on a soil surface using a small sprayer. Then, on the 21st day after the application to the plants grew in a greenhouse, the herbicidal effect was examined in accordance with a standard shown in Table 34.

[5] = system: green foxtail (Setaria viridis (L.) P. Beauv.); assay: as above; conditions: soil surface spray, upland field soil, 1,000 g active ingredient per hectare, 21st day after application
Protocol: as §2

[6] = system: slender amaranth (Amaranthus viridis L.); assay: as above; conditions: soil surface spray, upland field soil, 1,000 g active ingredient per hectare, 21st day after application
Protocol: as §2

[7] = system: velvetleaf (Abutilon theophrasti medicus); assay: as above; conditions: soil surface spray, upland field soil, 1,000 g active ingredient per hectare, 21st day after application
Protocol: as §2

| Compound | herbicidal effect, Scirpus juncoides Roxb. [1] | herbicidal effect, Echinochloa oryzicola Vasing [2] | herbicidal effect, Monochoria vaginalis (Burm. f.) C. Presl [3] | herbicidal effect (index), Barnyardgrass [4] | herbicidal effect (index), Green Foxtail [5] | herbicidal effect (index), Slender Amaranth [6] | herbicidal effect (index), Velvetleaf [7] |
| --- | --- | --- | --- | --- | --- | --- | --- |
| Cn1c(C(F)(F)F)ccc(C(=O)C2=C(Sc3ccc(Cl)cc3Cl)CCCC2=O)c1=O [II-14] | 5 (90% or more of herbicidal effect and crop phytotoxicity) | 5 (90% or more of herbicidal effect and crop phytotoxicity) | 5 (90% or more of herbicidal effect and crop phytotoxicity) | 4 (70 to less than 90% of herbicidal effect and crop phytotoxicity) | 3 (50 to less than 70% of herbicidal effect and crop phytotoxicity) | 5 (90% or more of herbicidal effect and crop phytotoxicity) | 5 (90% or more of herbicidal effect and crop phytotoxicity) |
| COC1=C(C(=O)c2ccc(C(F)(F)F)n(C)c2=O)C(=O)CCC1 [II-22] | 5 (90% or more of herbicidal effect and crop phytotoxicity) | 5 (90% or more of herbicidal effect and crop phytotoxicity) | 5 (90% or more of herbicidal effect and crop phytotoxicity) | 4 (70 to less than 90% of herbicidal effect and crop phytotoxicity) | 4 (70 to less than 90% of herbicidal effect and crop phytotoxicity) | 5 (90% or more of herbicidal effect and crop phytotoxicity) | 5 (90% or more of herbicidal effect and crop phytotoxicity) |
| O=C(C1=C(O)C2CCC(C2)C1=O)c1ccc(C(F)(F)F)n(-c2c(F)cccc2F)c1=O (stereo not drawn) [III-37] | 4 (70 to less than 90% of herbicidal effect and crop phytotoxicity) | 5 (90% or more of herbicidal effect and crop phytotoxicity) | 5 (90% or more of herbicidal effect and crop phytotoxicity) | 4 (70 to less than 90% of herbicidal effect and crop phytotoxicity) | 4 (70 to less than 90% of herbicidal effect and crop phytotoxicity) | 4 (70 to less than 90% of herbicidal effect and crop phytotoxicity) | 5 (90% or more of herbicidal effect and crop phytotoxicity) |
| Cn1c(C(F)(F)F)ccc(C(=O)C2=C(O)C3C=CC(C3)C2=O)c1=O (stereo not drawn) [III-42] | 5 (90% or more of herbicidal effect and crop phytotoxicity) | 5 (90% or more of herbicidal effect and crop phytotoxicity) | 5 (90% or more of herbicidal effect and crop phytotoxicity) | 4 (70 to less than 90% of herbicidal effect and crop phytotoxicity) | 3 (50 to less than 70% of herbicidal effect and crop phytotoxicity) | 5 (90% or more of herbicidal effect and crop phytotoxicity) | 5 (90% or more of herbicidal effect and crop phytotoxicity) |
| CC(CCn1c(C(F)(F)F)ccc(C(=O)c2cnn(C)c2O)c1=O)=C(F)F [IV-32] | 5 (90% or more of herbicidal effect and crop phytotoxicity) | 5 (90% or more of herbicidal effect and crop phytotoxicity) | 5 (90% or more of herbicidal effect and crop phytotoxicity) | 4 (70 to less than 90% of herbicidal effect and crop phytotoxicity) | 3 (50 to less than 70% of herbicidal effect and crop phytotoxicity) | 5 (90% or more of herbicidal effect and crop phytotoxicity) | 5 (90% or more of herbicidal effect and crop phytotoxicity) |
| CCCS(=O)(=O)Oc1c(C(=O)c2ccc(C(F)(F)F)n(CCS(C)(=O)=O)c2=O)cnn1C [IV-55] | 4 (70 to less than 90% of herbicidal effect and crop phytotoxicity) | 4 (70 to less than 90% of herbicidal effect and crop phytotoxicity) | 5 (90% or more of herbicidal effect and crop phytotoxicity) | 5 (90% or more of herbicidal effect and crop phytotoxicity) | 5 (90% or more of herbicidal effect and crop phytotoxicity) | 5 (90% or more of herbicidal effect and crop phytotoxicity) | 4 (70 to less than 90% of herbicidal effect and crop phytotoxicity) |
| CCCS(=O)(=O)Oc1c(C(=O)c2ccc(C(F)(F)F)n(-c3ccc([N+](=O)[O-])cc3)c2=O)cnn1C [IV-68] | 4 (70 to less than 90% of herbicidal effect and crop phytotoxicity) | 4 (70 to less than 90% of herbicidal effect and crop phytotoxicity) | 5 (90% or more of herbicidal effect and crop phytotoxicity) | 4 (70 to less than 90% of herbicidal effect and crop phytotoxicity) | 4 (70 to less than 90% of herbicidal effect and crop phytotoxicity) | 5 (90% or more of herbicidal effect and crop phytotoxicity) | 5 (90% or more of herbicidal effect and crop phytotoxicity) |
| CCCS(=O)(=O)Oc1c(C(=O)c2ccc(C(F)(F)F)n(-c3cc(F)cc(F)c3)c2=O)c(C)nn1C [IV-82] | 3 (50 to less than 70% of herbicidal effect and crop phytotoxicity) | 5 (90% or more of herbicidal effect and crop phytotoxicity) | 5 (90% or more of herbicidal effect and crop phytotoxicity) | 5 (90% or more of herbicidal effect and crop phytotoxicity) | 4 (70 to less than 90% of herbicidal effect and crop phytotoxicity) | 4 (70 to less than 90% of herbicidal effect and crop phytotoxicity) | 5 (90% or more of herbicidal effect and crop phytotoxicity) |
| CCCS(=O)(=O)Oc1c(C(=O)c2ccc(C(F)(F)F)n(-c3ccc(F)c(F)c3)c2=O)cnn1C [IV-87] | 5 (90% or more of herbicidal effect and crop phytotoxicity) | 5 (90% or more of herbicidal effect and crop phytotoxicity) | 5 (90% or more of herbicidal effect and crop phytotoxicity) | 5 (90% or more of herbicidal effect and crop phytotoxicity) | 5 (90% or more of herbicidal effect and crop phytotoxicity) | 5 (90% or more of herbicidal effect and crop phytotoxicity) | 5 (90% or more of herbicidal effect and crop phytotoxicity) |
